Results as given in ChEMBL document CHEMBL1201862, “PubChem BioAssay data set” (2004).
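Each compound was tested at five concentrations against cells in 96-well plates for 48 hours. GI50 = concentration required for 50% inhibition of growth.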 Activity calls are given as the source filed them. Rule as the data show it: active = GI50 up to about 1.1 µM and inactive = higher.

Experiments:
Experiment in all cases: DTP human tumour cell line panel, 48 h
LOX IMVI = test system: LOX IMVI
COLO 205 = test system: COLO 205
RPMI-8226 = test system: RPMI-8226
UO-31 = test system: UO-31
EKVX = test system: EKVX
SK-MEL-2 = test system: SK-MEL-2
SF-295 = test system: SF-295
MDA-N = test system: MDA-N
U-251 = test system: U-251
MOLT-4 = test system: MOLT-4
SK-MEL-28 = test system: SK-MEL-28
HCT-116 = test system: HCT-116
SK-MEL-5 = test system: SK-MEL-5
NCI-H522 = test system: NCI-H522
M14 = test system: M14
OVCAR-4 = test system: OVCAR-4
786-0 = test system: 786-0
K562 = test system: K562
KM12 = test system: KM12
OVCAR-3 = test system: OVCAR-3

Measured: GI50

COc1cc(/C=C2\C[C@H]3[C@@H]4CCC5=CC(=O)CC[C@]5(C)[C@H]4CC[C@]3(C)C2=O)cc(OC)c1OC
inactive: LOX IMVI 7.94 µM | COLO 205 4.32 µM | RPMI-8226 2.38 µM | UO-31 2.72 µM | EKVX 15.6 µM | SK-MEL-2 7.19 µM | SF-295 5.93 µM | MDA-N 4.43 µM | U-251 11.7 µM | MOLT-4 2.13 µM | SK-MEL-28 15.9 µM | HCT-116 3.85 µM | SK-MEL-5 3.07 µM | NCI-H522 3.2 µM | M14 3.74 µM | OVCAR-4 6.12 µM | 786-0 23.1 µM | K562 3.82 µM | KM12 3.58 µM | OVCAR-3 4.49 µM

Oc1ccc2ccccc2c1CN(Cc1c(O)ccc2ccccc12)C1CCCCC1
inactive: LOX IMVI 15 µM | COLO 205 16.1 µM | RPMI-8226 25.1 µM | UO-31 17.1 µM | EKVX 15.4 µM | SK-MEL-2 23.3 µM | SF-295 37 µM | MDA-N 15.4 µM | U-251 20.2 µM | MOLT-4 16.6 µM | SK-MEL-28 22.8 µM | HCT-116 15.8 µM | SK-MEL-5 14.9 µM | NCI-H522 13.4 µM | M14 15.2 µM | OVCAR-4 18.7 µM | 786-0 15.6 µM | K562 19.5 µM | KM12 28.2 µM | OVCAR-3 19.1 µM

Oc1ccccc1CNCc1ccccc1O
inactive: LOX IMVI 65.2 µM | COLO 205 34 µM | RPMI-8226 32.7 µM | UO-31 90.2 µM | EKVX > 100 µM | SK-MEL-2 > 100 µM | SF-295 > 100 µM | MDA-N 39.8 µM | U-251 > 100 µM | MOLT-4 88.5 µM | SK-MEL-28 > 100 µM | HCT-116 > 100 µM | SK-MEL-5 46.9 µM | NCI-H522 > 100 µM | M14 > 100 µM | OVCAR-4 > 100 µM | 786-0 > 100 µM | K562 39.6 µM | KM12 > 100 µM | OVCAR-3 > 100 µM

CC(O)C1OC(O)C2OC(C)(C)OC12 (stereo not given)
inactive: LOX IMVI > 100 µM | COLO 205 > 100 µM | RPMI-8226 > 100 µM | UO-31 > 100 µM | EKVX > 100 µM | SK-MEL-2 > 100 µM | SF-295 > 100 µM | MDA-N > 100 µM | U-251 > 100 µM | MOLT-4 > 100 µM | SK-MEL-28 > 100 µM | HCT-116 > 100 µM | SK-MEL-5 > 100 µM | NCI-H522 > 100 µM | M14 > 100 µM | OVCAR-4 > 100 µM | 786-0 > 100 µM | K562 > 100 µM | KM12 > 100 µM | OVCAR-3 > 100 µM

CC(C)(C)OC(=O)N/N=C(/N)c1ccccc1
inactive: LOX IMVI > 100 µM | COLO 205 > 100 µM | RPMI-8226 > 100 µM | UO-31 > 100 µM | EKVX > 100 µM | SK-MEL-2 > 100 µM | SF-295 > 100 µM | MDA-N > 100 µM | U-251 > 100 µM | MOLT-4 > 100 µM | SK-MEL-28 > 100 µM | HCT-116 > 100 µM | SK-MEL-5 > 100 µM | NCI-H522 > 100 µM | M14 > 100 µM | OVCAR-4 > 100 µM | 786-0 > 100 µM | K562 > 100 µM | KM12 > 100 µM | OVCAR-3 > 100 µM

O=C1C(Cl)=C(Cl)C(=O)N1c1ccc(F)cc1 [FLUOROIMIDE]
inactive: LOX IMVI 16.5 µM | COLO 205 14.4 µM | RPMI-8226 15.1 µM | UO-31 22 µM | EKVX 21.4 µM | SK-MEL-2 46.1 µM | SF-295 > 53.2 µM | MDA-N 19.5 µM | U-251 33.1 µM | MOLT-4 6.22 µM | SK-MEL-28 19.7 µM | HCT-116 26 µM | SK-MEL-5 38.3 µM | NCI-H522 3.81 µM | M14 19.5 µM | OVCAR-4 16.3 µM | 786-0 16.4 µM | K562 5.11 µM | KM12 20.8 µM | OVCAR-3 17.5 µM

O=C(O)c1cncc(C(=O)O)c1
inactive: LOX IMVI > 100 µM | COLO 205 > 100 µM | RPMI-8226 > 100 µM | UO-31 > 100 µM | EKVX > 100 µM | SK-MEL-2 > 100 µM | SF-295 > 100 µM | MDA-N > 100 µM | U-251 > 100 µM | MOLT-4 > 100 µM | SK-MEL-28 > 100 µM | HCT-116 > 100 µM | SK-MEL-5 > 100 µM | NCI-H522 > 100 µM | M14 > 100 µM | OVCAR-4 > 100 µM | 786-0 > 100 µM | K562 > 100 µM | KM12 > 100 µM | OVCAR-3 > 100 µM
